According to article PMC9481151, “Discovery of new symmetrical and asymmetrical nitrile-containing 1,4-dihydropyridine derivatives as dual kinases and P-glycoprotein inhibitors: synthesis, in vitro assays, and in silico studies” (Journal of Enzyme Inhibition and Medicinal Chemistry, 2022):

Experiments:
[1] = system: OVCAR-5; assay: NCI single dose (10 µM) SRB screen; assay type: cell-based, human; details: ovarian cancer, 48 h
[2] = system: SF-539; assay: NCI single dose (10 µM) SRB screen; assay type: cell-based, human; details: CNS cancer, 48 h
[3] = system: NCI/ADR-RES; assay: NCI single dose (10 µM) SRB screen; assay type: cell-based, human; details: ovarian cancer, 48 h
[4] = system: HCT-116; assay: NCI single dose (10 µM) SRB screen; assay type: cell-based, human; details: colon cancer, 48 h
[5] = system: RPMI-8226; assay: NCI single dose (10 µM) SRB screen; assay type: cell-based, human; details: leukaemia, 48 h
[6] = system: MOLT-4; assay: NCI single dose (10 µM) SRB screen; assay type: cell-based, human; details: leukaemia, 48 h
[7] = system: SN12C; assay: NCI single dose (10 µM) SRB screen; assay type: cell-based, human; details: renal cancer, 48 h
[8] = system: SK-OV-3; assay: NCI single dose (10 µM) SRB screen; assay type: cell-based, human; details: ovarian cancer, 48 h
[9] = system: CCRF-CEM; assay: NCI single dose (10 µM) SRB screen; assay type: cell-based, human; details: leukaemia, 48 h
[10] = system: CAKI-1; assay: NCI single dose (10 µM) SRB screen; assay type: cell-based, human; details: renal cancer, 48 h
[11] = system: COLO 205; assay: NCI single dose (10 µM) SRB screen; assay type: cell-based, human; details: colon cancer, 48 h
[12] = system: HL-60(TB); assay: NCI single dose (10 µM) SRB screen; assay type: cell-based, human; details: leukaemia, 48 h
[13] = system: OVCAR-4; assay: NCI single dose (10 µM) SRB screen; assay type: cell-based, human; details: ovarian cancer, 48 h
[14] = system: SNB-19; assay: NCI single dose (10 µM) SRB screen; assay type: cell-based, human; details: CNS cancer, 48 h
[15] = system: Candida albicans; assay: Agar well diffusion method
[16] = system: HCT-15; assay: NCI single dose (10 µM) SRB screen; assay type: cell-based, human; details: colon cancer, 48 h
[17] = system: HS578T; assay: NCI single dose (10 µM) SRB screen; assay type: cell-based, human; details: breast cancer, 48 h
[18] = system: T-47D; assay: NCI single dose (10 µM) SRB screen; assay type: cell-based, human; details: breast cancer, 48 h
[19] = system: Staphylococcus aureus; assay: Agar well diffusion method
[20] = system: BT-549; assay: NCI single dose (10 µM) SRB screen; assay type: cell-based, human; details: breast cancer, 48 h
[21] = system: Aspergillus flavus; assay: Agar well diffusion method
[22] = system: SNB-75; assay: NCI single dose (10 µM) SRB screen; assay type: cell-based, human; details: CNS cancer, 48 h
[23] = system: MDA-MB-231; assay: NCI single dose (10 µM) SRB screen; assay type: cell-based, human; details: breast cancer, 48 h
[24] = system: RXF 393; assay: NCI single dose (10 µM) SRB screen; assay type: cell-based, human; details: renal cancer, 48 h
[25] = system: U251; assay: NCI single dose (10 µM) SRB screen; assay type: cell-based, human; details: CNS cancer, 48 h
[26] = system: HT29; assay: NCI single dose (10 µM) SRB screen; assay type: cell-based, human; details: colon cancer, 48 h
[27] = system: HOP-92; assay: NCI single dose (10 µM) SRB screen; assay type: cell-based, human; details: non-small cell lung cancer, 48 h
[28] = system: MDA-MB-435; assay: NCI single dose (10 µM) SRB screen; assay type: cell-based, human; details: melanoma, 48 h
[29] = system: ACHN; assay: NCI single dose (10 µM) SRB screen; assay type: cell-based, human; details: renal cancer, 48 h
[30] = system: TK-10; assay: NCI single dose (10 µM) SRB screen; assay type: cell-based, human; details: renal cancer, 48 h
[31] = system: K-562; assay: NCI single dose (10 µM) SRB screen; assay type: cell-based, human; details: leukaemia, 48 h
[32] = system: HCC-2998; assay: NCI single dose (10 µM) SRB screen; assay type: cell-based, human; details: colon cancer, 48 h
[33] = system: SF-295; assay: NCI single dose (10 µM) SRB screen; assay type: cell-based, human; details: CNS cancer, 48 h
[34] = system: OVCAR-8; assay: NCI single dose (10 µM) SRB screen; assay type: cell-based, human; details: ovarian cancer, 48 h
[35] = system: IGROV1; assay: NCI single dose (10 µM) SRB screen; assay type: cell-based, human; details: ovarian cancer, 48 h
[36] = system: NCI 60 cancer cell lines; assay: NCI single dose (10 µM) SRB screen, mean over panel; assay type: cell-based, human; details: mean over 60 cell lines, 48 h
[37] = system: UO-31; assay: NCI single dose (10 µM) SRB screen; assay type: cell-based, human; details: renal cancer, 48 h
[38] = system: UACC-257; assay: NCI single dose (10 µM) SRB screen; assay type: cell-based, human; details: melanoma, 48 h
[39] = system: 786-0; assay: NCI single dose (10 µM) SRB screen; assay type: cell-based, human; details: renal cancer, 48 h
[40] = system: A549/ATCC; assay: NCI single dose (10 µM) SRB screen; assay type: cell-based, human; details: non-small cell lung cancer, 48 h
[41] = system: LOX IMVI; assay: NCI single dose (10 µM) SRB screen; assay type: cell-based, human; details: melanoma, 48 h
[42] = system: MDA-MB-468; assay: NCI single dose (10 µM) SRB screen; assay type: cell-based, human; details: breast cancer, 48 h
[43] = system: MALME-3M; assay: NCI single dose (10 µM) SRB screen; assay type: cell-based, human; details: melanoma, 48 h
[44] = system: PC-3; assay: NCI single dose (10 µM) SRB screen; assay type: cell-based, human; details: prostate cancer, 48 h
[45] = system: SK-MEL-2; assay: NCI single dose (10 µM) SRB screen; assay type: cell-based, human; details: melanoma, 48 h
[46] = system: NCI-H460; assay: NCI single dose (10 µM) SRB screen; assay type: cell-based, human; details: non-small cell lung cancer, 48 h
[47] = system: M14; assay: NCI single dose (10 µM) SRB screen; assay type: cell-based, human; details: melanoma, 48 h
[48] = system: OVCAR-3; assay: NCI single dose (10 µM) SRB screen; assay type: cell-based, human; details: ovarian cancer, 48 h
[49] = system: A498; assay: NCI single dose (10 µM) SRB screen; assay type: cell-based, human; details: renal cancer, 48 h
[50] = system: EKVX; assay: NCI single dose (10 µM) SRB screen; assay type: cell-based, human; details: non-small cell lung cancer, 48 h
[51] = system: NCI-H322M; assay: NCI single dose (10 µM) SRB screen; assay type: cell-based; details: non-small cell lung cancer, 48 h
[52] = system: NCI-H23; assay: NCI single dose (10 µM) SRB screen; assay type: cell-based, human; details: non-small cell lung cancer, 48 h
[53] = system: SF-268; assay: NCI single dose (10 µM) SRB screen; assay type: cell-based, human; details: CNS cancer, 48 h

Q: Which “GI% OVCAR-5” value [1] does the source give for `COC(=O)C1=C(C)NC(C)=C(C(=O)OCC(C)C)C1c1cccc(C#N)c1` (racemic) [Compound 2b, (±)-3-Isobutyl 5-methyl 4-(3-cyanophenyl)-2,6-dimethyl-1,4-dihydropyridine-3,5-dicarboxylate] here?
A: – (Only GI% ≥ 10 are shown)

Q: What about the “GI% SF-539” value [2] of the same compound?
A: – (Only GI% ≥ 10 are shown)

Q: And the “GI% NCI/ADR-RES” value [3]?
A: – (Only GI% ≥ 10 are shown)

Q: What about the “GI% HCT-116” value [4] of the same compound?
A: 18%

Q: What about the “GI% RPMI-8226” value [5] of the same compound?
A: – (Only GI% ≥ 10 are shown)

Q: And the “GI% MOLT-4” value [6]?
A: 16%

Q: What about the “GI% SN12C” value [7] of the same compound?
A: – (Only GI% ≥ 10 are shown)

Q: And the “GI% SK-OV-3” value [8]?
A: – (Only GI% ≥ 10 are shown)

Q: And the “GI% CCRF-CEM” value [9]?
A: – (Only GI% ≥ 10 are shown)

Q: What about the “GI% CAKI-1” value [10] of the same compound?
A: 28%

Q: And the “GI% COLO 205” value [11]?
A: – (Only GI% ≥ 10 are shown)

Q: And the “GI% HL-60(TB)” value [12]?
A: 18%

Q: What about the “GI% OVCAR-4” value [13] of the same compound?
A: – (Only GI% ≥ 10 are shown)

Q: What about the “GI% SNB-19” value [14] of the same compound?
A: – (Only GI% ≥ 10 are shown)

Q: What about the zone of inhibition at 1000 µg/mL ([15]; Candida albicans, 24 h, read-out: Diameter of inhibition zone, C. albicans) of the same compound?
A: 7 mm

Q: What about the “% activity index, C. albicans” value ([15]; relative to clotrimazole) of the same compound?
A: 25.9%

Q: And the “GI% HCT-15” value [16]?
A: – (Only GI% ≥ 10 are shown)

Q: What about the “GI% HS578T” value [17] of the same compound?
A: 14%

Q: And the “GI% T-47D” value [18]?
A: 25%

Q: What about the zone of inhibition at 1000 µg/mL ([19]; Staphylococcus aureus, 24 h, read-out: Diameter of inhibition zone, S. aureus) of the same compound?
A: 9 mm

Q: What about the “% activity index, S. aureus” value ([19]; relative to ciprofloxacin) of the same compound?
A: 37.5%

Q: And the “GI% BT-549” value [20]?
A: – (Only GI% ≥ 10 are shown)

Q: What about the zone of inhibition at 1000 µg/mL ([21]; Aspergillus flavus, 24 h, read-out: Diameter of inhibition zone, A. flavus) of the same compound?
A: 11 mm

Q: And the “% activity index, A. flavus” value ([21]; relative to clotrimazole)?
A: 44%

Q: And the “GI% SNB-75” value [22]?
A: 22%

Q: What about the “GI% MDA-MB-231” value [23] of the same compound?
A: – (Only GI% ≥ 10 are shown)

Q: And the “GI% RXF 393” value [24]?
A: – (Only GI% ≥ 10 are shown)

Q: And the “GI% U251” value [25]?
A: – (Only GI% ≥ 10 are shown)

Q: What about the “GI% HT29” value [26] of the same compound?
A: – (Only GI% ≥ 10 are shown)

Q: What about the “GI% HOP-92” value [27] of the same compound?
A: 17%

Q: And the “GI% MDA-MB-435” value [28]?
A: – (Only GI% ≥ 10 are shown)

Q: And the “GI% ACHN” value [29]?
A: – (Only GI% ≥ 10 are shown)

Q: And the “GI% TK-10” value [30]?
A: – (Only GI% ≥ 10 are shown)

Q: What about the “GI% K-562” value [31] of the same compound?
A: 15%

Q: And the “GI% HCC-2998” value [32]?
A: – (Only GI% ≥ 10 are shown)

Q: What about the “GI% SF-295” value [33] of the same compound?
A: 18%

Q: And the “GI% OVCAR-8” value [34]?
A: – (Only GI% ≥ 10 are shown)

Q: And the “GI% IGROV1” value [35]?
A: 12%

Q: And the “Mean GI%” value [36]?
A: 5%

Q: What about the “GI% UO-31” value [37] of the same compound?
A: 11%

Q: What about the “GI% UACC-257” value [38] of the same compound?
A: – (Only GI% ≥ 10 are shown)

Q: And the “GI% 786-0” value [39]?
A: – (Only GI% ≥ 10 are shown)

Q: What about the “GI% A549/ATCC” value [40] of the same compound?
A: – (Only GI% ≥ 10 are shown)

Q: And the “GI% LOX IMVI” value [41]?
A: – (Only GI% ≥ 10 are shown)

Q: And the “GI% MDA-MB-468” value [42]?
A: – (Only GI% ≥ 10 are shown)

Q: And the “GI% MALME-3M” value [43]?
A: – (Only GI% ≥ 10 are shown)

Q: What about the “GI% PC-3” value [44] of the same compound?
A: 22%

Q: And the “GI% SK-MEL-2” value [45]?
A: – (Only GI% ≥ 10 are shown)

Q: What about the “GI% NCI-H460” value [46] of the same compound?
A: – (Only GI% ≥ 10 are shown)

Q: And the “GI% M14” value [47]?
A: – (Only GI% ≥ 10 are shown)

Q: What about the “GI% OVCAR-3” value [48] of the same compound?
A: – (Only GI% ≥ 10 are shown)

Q: What about the “GI% A498” value [49] of the same compound?
A: – (Only GI% ≥ 10 are shown)

Q: What about the “GI% EKVX” value [50] of the same compound?
A: 12%

Q: And the “GI% NCI-H322M” value [51]?
A: – (Only GI% ≥ 10 are shown)

Q: And the “GI% NCI-H23” value [52]?
A: – (Only GI% ≥ 10 are shown)

Q: And the “GI% SF-268” value [53]?
A: – (Only GI% ≥ 10 are shown)
